In ChEMBL document CHEMBL4138057, “Structure-guided optimization of quinoline inhibitors of Plasmodium N-myristoyltransferase” (Medchemcomm, 2017) one finds Ki data, which are given here for 3 molecules.

This assay has as its target T1, Glycylpeptide N-tetradecanoyltransferase (Plasmodium falciparum (isolate 3D7), UniProt Q8ILW6).
T1 sequence (Q8ILW6 whole entry): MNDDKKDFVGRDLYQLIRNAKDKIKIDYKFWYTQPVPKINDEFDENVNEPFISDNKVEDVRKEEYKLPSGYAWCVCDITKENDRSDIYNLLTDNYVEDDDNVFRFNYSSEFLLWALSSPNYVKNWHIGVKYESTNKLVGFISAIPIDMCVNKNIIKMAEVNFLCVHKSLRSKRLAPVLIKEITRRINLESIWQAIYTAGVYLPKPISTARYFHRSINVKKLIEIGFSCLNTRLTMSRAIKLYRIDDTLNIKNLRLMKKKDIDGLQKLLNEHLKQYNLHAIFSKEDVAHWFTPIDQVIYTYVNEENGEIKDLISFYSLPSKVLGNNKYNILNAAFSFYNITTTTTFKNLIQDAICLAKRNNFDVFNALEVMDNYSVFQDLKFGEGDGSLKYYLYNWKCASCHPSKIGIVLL
Description: Inhibition of Plasmodium falciparum NMT preincubated for 10 to 20 mins followed by Hs pp60src (2 to 16 residues) substrate addition measured after 60 mins by CPM-based fluorescence assay. As to conditions: read-out: Ki(app).

Molecules are shown by their SMILES. A value given as a limit tells only on which side of the number the result lay.

For `CCOC(=O)c1cnc2ccc(OCc3ccccc3)cc2c1S(=O)(=O)CC`, the Ki was over 10 µM.

Take `CCOC(=O)c1cnc2ccc(OCc3ccccc3)cc2c1SCCC#N`: the Ki is over 10 µM.

Regarding `CCSc1c(CO)cnc2ccc(OCc3ccccc3)cc12`, the Ki is over 10 µM.
